How the values were obtained:
HIV-1 env and gag mRNA = HIV-1 env and gag mRNA expression by real-time RT-PCR in infected CEM T cells; type: cell-based; conditions: 10 μM 1E7-03, DP1, DP3; 5 μM AZT, 3TC; in words
Method: For quantitative analysis of HIV-1 RNA, CEM T cells were infected with HIV-1-LUC-G virus. Cells were treated with 10 μM 1E7-03, 10 μM DP1, 10 μM DP3, 5 μM AZT or 5 μM 3TC and control cells were untreated or treated with DMSO. Total RNA was isolated using Trizol Reagent (Invitrogen, Carlsbad, CA) according to the manufacturer's protocol. Total RNA (100 ng) was reverse transcribed to cDNA using Superscript™ RT-PCR kit (Invitrogen, Carlsbad, CA). Hexamers and oligo-dT were used as primers. For real-time PCR analysis, cDNA was amplified using Roche LightCycler 480 (Roche Diagnostics) and SYBR Green1 Master mix (Roche Diagnostics). PCR was run for 45 cycles and each cycle included denaturation at 95°C for 10 seconds, annealing at 60°C for 10 seconds, and extension at 72°C for 10 seconds. Quantification of env and gag was carried using 18S RNA as a normalization standard. Quantification of housekeeping genes, β-actin and RSP13 was carried relative to 18S RNA. Mean Cp values were determined and ΔΔCt method was used to calculate relative expression levels. Unpaired t-test was used to test statistical significance.
The following primer sequences were used: env, forward - […], reverse-[…]; gag, forward- […], reverse- […]; β-actin, forward- […], reverse-[…]; RSP13, forward- […], reverse- […]; and 18SrRNA, forward- […], reverse- […].

[1] = Pharmacokinetic analysis in mice after i.p. injection; type: in vivo; conditions: male, BALB/cJ, ip, mouse plasma after i.p. 100 mg/kg DP1-07; for AUC(0-t) / MRT last / half-life / Tmax: parent and products DP1-07P1, DP1-07P2; for Cmax: parent and products DP1-07P1, DP1-07P2 (quantified with DP1 and DP3 calibration curves); for Tmax: mouse, plasma, 100 mg/kg
Method: The animal facilities and protocols were approved by Howard University Institutional Animal Care and Use Committee (IACUC). All experimental procedures were in accordance with the NIH Guidelines for the Care and Use of Laboratory Animals. BALB/cJ male mice (8 weeks old, 25–30 g) were purchased from Jackson Laboratory (Bar Harbor, ME, USA) and housed under pathogen-free conditions in HEPA-filtered cages and kept on a 12 h light/dark cycle. Compounds were administered to mice via intraperitoneal (i.p.) injection with maximum achievable doses of 30 mg/kg 1E7-03 (100 μl injection of 8 mM 1E7-03 in 80% DMSO/20% saline) and 100 mg/kg DP1-07 (100 μl injection of 100 mM DP1-07 in 40% propylene glycol/10% DMSO/50% saline). Blood samples were collected at different time points (15 min, 30 min, 1 hr, 3 hr, 6 hrs and 24 hrs) for each group (n=3 mice per group). For each sample, 20 μl of plasma was mixed with 80 μl cold acetone, and centrifuged at 13,000 rpm for 5 min. The supernatant was transferred to a clean test tube and dried in a SpeedVac concentrator. The residue was re-constituted in 50 μl of acetonitrile for LC-MS analysis. Calibration curves were prepared by spiking 1E7-03, DP1, DP3 and DP1-07 into the drug-free mouse plasma and subjected to similar sample extraction procedures. The plasma concentration–time profile of each analyte was constructed and pharmacokinetic parameters were determined by non-compartmental method using Phoenix WinNonlin Version 5.3 (Pharsight Corporation, Mountain View, CA).
A 10 μl aliquots from each sample were loaded to a LC-20AD nano HPLC system (Shimadzu Corporation, Columbia, MD, USA) coupled to LTQ XL Orbitrap mass spectrometer (Thermo Fisher Scientific) with the installed Xcalibur software (version 2.0.7, Thermo Fisher Scientific). Liquid chromatography was carried out on an in-house made nano-HPLC column (Polymicro Technologies Inc., Phoenix, AZ, USA) packed with reverse phase PolySulfoethyl A, 5μM, 200 Å (PolyLC Inc., Columbia, MD, USA). Mobile phase A was 0.1% formic acid in water and mobile phase B - 0.1% formic acid in acetonitrile. The elution was performed at a flow rate of 600 nl/min over 40 min using a multisegment linear gradient of mobile phase B as follows: 0–6.02 min, 1% B; 6.02–6.11 min, 1–2% B; 6.11–20 min, 2−80% B; 20–25 min, 80% B; 25–30 min, 80–85% B; 30–31 min, […]; 31–40 min, 2% B (v/v). The Orbitrap was operated under data-dependent acquisition mode. The spray voltage, capillary temperature and capillary voltage were set to 2.0 kV, 200 °C, and 39.5 V, respectively. Full-scan mass spectra were acquired in Orbitrap over 150−1500 m/z with a resolution of 30 000, followed by MS^n scans by CID activation mode. The precursor ions were fragmented with collision energy of 18 with activation Q of 0.25 and an activation time of 30 ms. Dynamic exclusion was enabled with a repeat count of 2, a repeat duration of 15 s, exclusion duration of 20 s, an exclusion list size of 50. The mass spectrometer was also operated in NL scan of m/z 18.01, 45.05, 71.03 and 72.02 and MRM mode. The MRM transitions were controlled by a segmented program in order to short the scan cycle and increase sensitivity.

[2] = molecular target: T1, Recombinant PP1 (human PP1α residues 7–300) (Homo sapiens, UniProt P62136); assay: Surface plasmon resonance direct binding to immobilized PP1; conditions: SPR; for PP1 WT KD (M): 1:1 binding model, 25°C
T1 construct: human PP1α (residues 7–300); His; made in house; host or cells: BL21 (DE3) Escherichia coli, co-expressed with GroEL/GroES chaperones
Method: PP1 was purified as previously described. BL21 (DE3) Escherichia coli cells (Invitrogen, Carlsbad, CA, USA) were -transformed with a vector expressing human PP1α (residues 7–300) and pGR07, which expresses GroEL/[…] chaperones (both gifts from Dr Mathieu Bollen and Monique Beullens, KU Leuven, Belgium). The cells were grown in media supplemented with 1 mM MnCl2 at 30°C to an A600 =0.5. Arabinose (2 g per L) was added to induce expression of the GroEL/GroES chaperones. When A600 =1 was reached, the cells were transferred to 10°C and PP1 expression was induced with 0.1 mM Isopropyl β-D-1-thiogalactopyranoside for 20 hrs. Harvested cells were lysed using sonication in a solution containing in 50 mM Tris-HCl (pH 8.0), 5 mM imidazole, 700 mM NaCl, 1 mM MnCl2, 0.1% Triton X-100 (v/v) and protease inhibitors. His-tagged PP1 was purified using a Ni-NTA IMAC column (Qiagen, Valencia, CA, USA). Purified PP1 was dialyzed and stored at −70°C in 50 mM Tris-HCl (pH 8.0), 5 mM imidazole, 700 mM NaCl and 1 mM MnCl2. PP1 activity was then assayed as previously described.
The SPR measurements were conducted on Biacore T200 instrument (GE Healthcare, Piscataway, NJ) at 25°C. Recombinant PP1 was immobilized on a CM5 chip by amine coupling (GE Healthcare). PP1 (200 nM) was captured on flow cell 2 in 10 mM acetate buffer, pH 5.0, supplemented with 2 mM MnCl2. […] Flow cell 1 was used as a reference surface to subtract background signal. Also injections of the buffer alone were used to provide double reference subtraction. […] For binding and kinetics experiments, all compounds were diluted in the running buffer, at 40 μM, 20 μM, 10 μM, 5 μM, 2.5 μM, 1.25 μM and 0 μM and then passed over the two flow cells at a flow rate of 100 μl/min for 60 sec. The number of response units was recorded after the subtraction of the reference flow cell's value (Fc2-1). Two repetitions were performed for each injection. Data were analyzed using the BiaEvaluation software of Biacore with a 1:1 binding model. […] All the small molecular weight compounds were used at 1 μM.

AUC(0-t) [1] [µM·h]	MRT last [1] [h]	half-life [1] [h]	Cmax [1] [µM]	Tmax [1] [h]	Molecule	HIV-1 env mRNA expression (HIV-1 env and gag mRNA)	HIV-1 gag mRNA expression (HIV-1 env and gag mRNA)	further results
–	–	–	–	–	Nc1ccn([C@@H]2CS[C@H](CO)O2)c(=O)n1 [3TC, lamivudine, reference compound]	strong inhibition	strong inhibition	–
–	–	–	–	–	Cc1cn([C@H]2C[C@H](N=[N+]=[N-])[C@@H](CO)O2)c(=O)[nH]c1=O [AZT, azidothymidine, reference compound]	strong inhibition	strong inhibition	–
124	10.5	13.4	7.54	6	COc1ccc(/C=C2\CCCc3c2nc2ccccc2c3C(=O)OC(C)C(=O)O)cc1OC (centres unmarked) [DP1-07P1]	–	–	–
288	8.86	4.66	23.7	6	COc1ccc(/C=C2\CCCc3c2nc2ccccc2c3C(=O)O)cc1OC [DP1-07P2]	–	–	–
–	–	–	–	–	CC[C@H](C)[C@H](NC(=O)[C@H](Cc1ccccc1)NC(=O)[C@H](CS)NC(=O)[C@@H](NC(=O)[C@H](CCC(N)=O)NC(=O)[C@H](CS)NC(=O)[C@H](Cc1c[nH]cn1)NC(=O)[C@H](Cc1ccccc1)NC(=O)[C@H](CS)NC(=O)[C@H](CS)NC(=O)[C@H](CCCCN)NC(=O)[C@H](CCCCN)NC(=O)[C@H](CCCNC(=N)N)NC(=O)[C@H](CC(C)C)NC(=O)[C@@H]1CCCN1C(=O)[C@H](CO)NC(=O)[C@H](CO)NC(=O)[C@@H]1CCCN1C(=O)[C@H](Cc1ccccc1)NC(=O)[C@H](CCCCN)NC(=O)[C@H](Cc1ccc(O)cc1)NC(=O)[C@@H]1CCCN1C(=O)[C@H](COP(=O)(O)O)NC(=O)[C@H](CCCNC(=N)N)NC(=O)[C@@H]1CCCN1C(=O)[C@@H](NC(=O)[C@@H](N)Cc1c[nH]cn1)[C@@H](C)CC)C(C)C)C(=O)N[C@H](C(=O)N[C@@H](CCCCN)C(=O)O)[C@@H](C)O [pRb-Tat, reference compound]	–	–	times higher binding ability than 1E7-03, DP1 and DP3 [2]: 20-40 times
–	–	–	–	–	pRb-Tat mutant: mutant pRb-Tat peptide with QACA mutation in the RVxF motif (HIPRSPYKFPSSPLRKKCCFHCQACAITK) [reference compound]	–	–	PP1 WT KD (M) [2]: No binding; PP1 WT KD (M) ([2]; listed as mutant pRb-Tat): did not bind

From paper PMC5652740, “Inhibition of HIV-1 infection in humanized mice and metabolic stability of protein phosphatase-1-targeting small molecule 1E7-03” (Oncotarget, 2017)
